The assay concerns Saccharomyces cerevisiae lifespan extension, no nicotinamide. The assay can be described thus: yeast lifespan extension without nicotinamide, confirmation, yeast lifespan extension project, S. cerevisiae (AID 812).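 Note: growth read as optical density after 42 hours of incubation at 30C.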

SMILES strings stand for the structures. Calls of active or inactive are those of the source. The rule behind the calls is not given here.

In the case of `CCOC(=O)COc1ccccc1/C=C\[N+](=O)[O-]`, the EC50 (commonly the concentration at which the effect is half-maximal) is > 40 µM (inactive).
For the compound `Cc1ccc(S(=O)(=O)Nc2ccccc2/C=N/c2nc3ccccc3n2C(C)C)cc1`, the EC50 is > 40 µM (inactive).
Take `COC(=O)c1sc2ncn(-n3c(C)ccc3C)c(=O)c2c1C`: the EC50 was > 40 µM (inactive).
`O=C(CSc1nc2ccccc2o1)c1cc2ccccc2oc1=O`: the EC50 is > 40 µM (inactive).
For `CCCCC(=Nc1ccccc1OC)C1=C(O)CC(c2ccccc2)CC1=O` (stereo not drawn) the value was > 40 µM (inactive); for `COc1ccc2c3c(cccc13)C(=O)N(O)C2=O`, > 40 µM (inactive); for `CCOC(=O)/C(=C\c1cn(C)c2ccccc12)[N+](=O)[O-]`, > 40 µM (inactive).
For `O=C(NCc1cccnc1)c1ccc(S(=O)(=O)N2CCCCC2)cc1` the value was > 40 µM (inactive).
For `CCCCNC(=O)/C(C#N)=C/c1cccnc1` the value was > 40 µM (inactive).
As for `O=C1/C(=C\c2cccnc2)CN(Cc2ccccc2)C/C1=C\c1cccnc1`, the EC50 is > 40 µM (inactive).
The value for `COC(=O)c1cc(=O)n(-c2ccccc2)c(=Nc2ccccc2)s1` was > 40 µM (inactive); that for `CN(Cc1c(O)ccc2c1oc(=O)c1ccccc12)C1CCCCC1` was > 40 µM (inactive); that for `CS(=O)(=O)Oc1ccc(Br)cc1/C=C1/N=C(c2ccco2)OC1=O` was > 40 µM (inactive).
For `CC1(C)CC2c3cccc(C(=O)O)c3C(=O)N2c2c1ccc1ccccc21` (stereo not drawn) the value was > 40 µM (inactive).
For `O=C(Nc1cccc(Cl)c1)c1ccc2c(=O)n3c(nc2c1)CCCCC3` the value was > 40 µM (inactive).
Regarding `O=C1C(Cl)=C(Nc2ccccc2O)C(=O)N1CCc1ccccc1`, the EC50 was > 40 µM (inactive).
In the case of `CCOc1ccccc1/C=c1\sc2ncnn2c1=O`, the EC50 is > 40 µM (inactive).
For the compound `CCCn1c(SCC(=O)c2ccc3c(c2)NC(=O)CO3)nc2ccccc21`, the EC50 was > 40 µM (inactive).
For `COCCN(CCOC)S(=O)(=O)c1ccc(C(=O)Nc2sc3c(c2C(N)=O)CCCCC3)cc1` the value was > 40 µM (inactive); for `CS(=O)(=O)c1nc(-c2ccccc2)cc(C(F)(F)F)n1`, > 40 µM (inactive); for `O=C(Nc1ccc(Br)cn1)c1cccc(-c2cc3ccccc3oc2=O)c1`, > 40 µM (inactive).
The value for `O=C(Oc1cc(=O)n2ccccc2n1)c1ccccc1` was > 40 µM (inactive); that for `CCCC(=O)Nc1ccc(C(=O)NNC(=S)NC(=O)c2cccs2)cc1` was > 40 µM (inactive).
In the case of `Cc1ccsc1C(=O)Nc1nnc(-c2ccco2)o1`, the EC50 is > 40 µM (inactive).
With `O=C(c1ccccc1)c1nc2ccccc2[nH]c1=O`, the EC50 was > 40 µM (inactive).
On to `CCC(=O)N1CCN(CCN=CC2=C(O)CC(c3cccs3)CC2=O)CC1` (stereo not drawn), for which the EC50 is > 40 µM (inactive).
Consider `C[C@]12CC[C@@H]3c4ccc(O)cc4CC[C@H]3[C@@H]1CC[C@@H]2OC(=O)CCC(=O)O`, for which the EC50 was > 40 µM (inactive).
The value for `CCOC(=O)C1C(c2cccs2)NC(=O)N(C)C1(O)C(F)(F)F` (stereo not drawn) was > 40 µM (inactive); that for `Fc1cccc2sc(Nc3nnc(-c4ccccc4)o3)nc12` was > 40 µM (inactive).
Consider `Cc1ccc(S(=O)(=O)C(C#N)c2nc3ccccc3nc2N2CCCC2)cc1` (stereo not drawn), for which the EC50 was > 40 µM (inactive).
The value for `Cc1n[nH]c(=O)n1-c1cccc(C(F)(F)F)c1` was > 40 µM (inactive).
The value for `CCc1cc2c(=O)c(Oc3ccccc3)c(C)oc2cc1O` was > 40 µM (inactive).
For `Cc1nonc1NC(=O)CSc1nc(C2CCCCC2)nc2ccccc12` the value was > 40 µM (inactive); for `O=S(=O)(Nc1cccc2c1CCCC2)c1ccc(Cl)cc1`, > 40 µM (inactive).
On to `CCOC(=O)/C(=C/c1ccc(OC(=O)c2ccccc2)cc1)C(C)=O`, for which the EC50 is > 40 µM (inactive).
As for `O=C(CCC1CCCC1)c1c(O)c2ccccc2oc1=O`, the EC50 was > 40 µM (inactive).
Regarding `O=C1NCC2=C1C(c1ccc(Br)cc1)Nc1ccccc1N2` (stereo not drawn), the EC50 is > 40 µM (inactive).
With `COc1ccc(N(C(=O)C(C)C)S(=O)(=O)c2ccc(Cl)cc2)cc1`, the EC50 was > 40 µM (inactive).
For `CC1(C)CC(=O)C(C(=O)Cc2ccccc2[N+](=O)[O-])C(=O)C1` the value was > 40 µM (inactive).
The value for `O=C1c2ccccc2NC(c2ccc(Cl)cc2Cl)N1O` (stereo not drawn) was > 40 µM (inactive).
With `O=C(Nc1ccc(S(=O)(=O)N2CCc3ccccc3C2)cc1)c1ccccc1`, the EC50 is > 40 µM (inactive).
For the compound `CCn1ncc(/C=N/NC(=O)c2ccc3c(c2)OCO3)c1C`, the EC50 is > 40 µM (inactive).
The value for `O=C(Nc1nc2ccccc2n1CCN1CCOCC1)c1cn(-c2ccccc2)nc1-c1ccccc1` was > 40 µM (inactive); that for `O=c1c2[nH]c3ccccc3c2ncn1Cc1ccco1` was > 40 µM (inactive); that for `COc1cc(OC)cc(-c2nc3ccccc3c(=O)n2OC(=O)c2ccc(C)c(C)c2)c1` was > 40 µM (inactive).
As to `O=C(/C=C(\O)c1ccc(Cl)cc1)C(=O)NNC(=O)C(O)(c1ccccc1)c1ccccc1`, the EC50 is > 40 µM (inactive).
The value for `CCc1[nH]nc2c1C(c1ccc(Br)s1)C(C#N)=C(N)O2` (stereo not drawn) was > 40 µM (inactive); that for `Cc1cc(C)nc(SCc2cc(=O)c(OC(=O)c3ccco3)co2)n1` was > 40 µM (inactive); that for `Cc1cc(C(=O)CN2C(=O)NC(C)(CC(C)C)C2=O)c(C)n1-c1ccc2c(c1)OCO2` (stereo not drawn) was > 40 µM (inactive).
The value for `CCc1nnc(NC(=O)c2cccc(S(=O)(=O)N(C)c3ccccc3)c2)s1` was > 40 µM (inactive); that for `O=C(O)c1ccc(O)c(N2C(=O)Nc3ccccc3N2O)c1` was > 40 µM (inactive).
The value for `Cc1c(NC(=O)C(=O)/C=C(/O)c2ccccc2)c(=O)n(-c2ccccc2)n1C` was > 40 µM (inactive); that for `O=C(Nc1nccs1)c1ccc2c(=O)n3c(nc2c1)CCCCC3` was > 40 µM (inactive); that for `O=C(CS(=O)c1ccc(C(F)(F)F)cc1[N+](=O)[O-])Oc1ccccc1` (stereo not drawn) was > 40 µM (inactive).
As for `O=c1cc(-c2ccccc2Cl)oc2ccc([N+](=O)[O-])c(O)c12`, the EC50 is > 40 µM (inactive).
As to `COC(=O)C1=C(N)OC2=C(C(=O)CC(C)(C)C2)C1c1cccs1` (stereo not drawn), the EC50 was > 40 µM (inactive).
For `O=c1cc(-c2c(F)c(F)c(F)c(F)c2F)oc2c(F)c(F)c(F)c(F)c12` the value was > 40 µM (inactive); for `O=c1c2ccccc2nc(-c2cccc(Cl)c2)n1O`, > 40 µM (inactive); for `O=C(NCc1ccc(Cl)cc1)c1ccccc1CCc1ccccc1`, > 40 µM (inactive).
Take `CN1OC(c2ccccc2)=C(CO)C1c1ccccc1` (stereo not drawn): the EC50 is > 40 µM (inactive).
For `CCc1nnc(N2C(=O)c3ccc(Oc4ccc([N+](=O)[O-])cc4)cc3C2=O)s1` the value was > 40 µM (inactive); for `COc1cc(/C=C/C(=O)c2c(O)cc(C)oc2=O)cc(OC)c1O`, > 40 µM (inactive).
Regarding `CN=C(SCc1cc2c(cc1Cl)OCO2)c1c(O)n(C)c(=O)n(C)c1=O`, the EC50 was > 40 µM (inactive).
With `O=C(NCc1ccco1)c1c(O)c2cccc3c2n(c1=O)CCC3`, the EC50 is > 40 µM (inactive).
Take `ClC(Cl)(c1nnnn1-c1ccccc1)c1nnnn1-c1ccccc1`: the EC50 is > 40 µM (inactive).
The value for `C=C(C(=O)c1ccccc1)C(CC(=O)c1ccccc1)c1ccccc1` (stereo not drawn) was > 40 µM (inactive).
With `CCCCC1C(=O)CC[C@H]2[C@@H]1CC(=O)[C@@H]2C/C=C\CCCC(=O)O` (stereo partly drawn), the EC50 is > 40 µM (inactive).
For `O=[N+]([O-])c1c(C(Cl)Cl)nn(-c2ccccc2)c1N1CCCC1` the value was > 40 µM (inactive); for `COc1ccc(C(=O)C(CN2CCOCC2)c2ccccc2)cc1` (stereo not drawn), > 40 µM (inactive); for `CCn1c(/C=N/c2nc3ccccc3n2C)nc2ccccc21`, > 40 µM (inactive).
For the compound `CN(C)CC(C(=O)c1ccccc1)c1ccccc1` (stereo not drawn), the EC50 was > 40 µM (inactive).
On to `COc1ccc(CCN2C(=O)C(O)=C(C(=O)c3ccco3)C2c2cccs2)cc1OC` (stereo not drawn), for which the EC50 was > 40 µM (inactive).
The value for `CN(C)/C=C(/C(=O)c1ccc(Cl)cc1Cl)S(=O)(=O)c1ccc(Cl)cc1` was > 40 µM (inactive); that for `c1ccc(-c2cc(N3CCOCC3)nc3ccccc23)cc1` was > 40 µM (inactive).
As to `Cn1c(=O)c(=O)n(C)c2cc(S(=O)(=O)N3CCN(Cc4ccccc4)CC3)ccc21`, the EC50 was > 40 µM (inactive).
The value for `Cc1ccc2nc(-c3ccc(NC(=O)CSc4ccccc4)cc3)[nH]c2c1` was > 40 µM (inactive); that for `CNC(=S)NC1CC2CCCC(C1)N2Cc1ccco1` (stereo not drawn) was > 40 µM (inactive); that for `COc1cc(OC)cc(-c2nc3ccccc3c(=O)n2OC(=O)c2ccccc2C)c1` was > 40 µM (inactive).
As to `COc1cnc(-c2ccccn2)nc1Sc1cccc(Cl)c1`, the EC50 was > 40 µM (inactive).
For `CCCCOC(=O)n1c(=O)oc2cc(S(=O)(=O)N3CCCCC3)ccc21` the value was > 40 µM (inactive); for `O=C(N/N=C/c1cccc(F)c1)c1c(O)c2ccccc2[nH]c1=O`, > 40 µM (inactive).
As to `COc1ccc(-c2noc(CSc3nnc(-c4ccncc4)n3-c3ccc(F)cc3)n2)cc1OC`, the EC50 is > 40 µM (inactive).
With `COC(=O)C1=C(C(=O)OC)SC(=C2C(=S)C(C)(C)N(C(=O)C(C)C)c3ccccc32)S1`, the EC50 was > 40 µM (inactive).
The value for `CC1CC(C)CN(S(=O)(=O)c2cccc(C(=O)N3C(=O)c4cccc(N)c4C3=O)c2)C1` (stereo not drawn) was > 40 µM (inactive).
Turning to `O=c1[nH]c2ccccc2nc1Cc1ccccc1`, the EC50 is > 40 µM (inactive).
For `O=C(/C=C/c1ccccc1)Nc1ncn[nH]1` the value was > 40 µM (inactive).
On to `O=C(CCc1ccccc1)NCCCN1CCOCC1`, for which the EC50 was > 40 µM (inactive).
The value for `Cc1c(O)c(S(=O)c2ccccc2)c(=O)n(-c2ccccc2)c1-c1ccccc1` (stereo not drawn) was > 40 µM (inactive).

The values are drawn from PubChem BioAssay AID812 (SRMLSC, 2007).
